Columns and labels:
[1] = tested on: 10 enzyme targets; assay: Enzyme and uptake assays; type: biochemical; settings: 10 μM
Experimental: The purpose of this study was to provide a first step in preliminary safety assessments by providing early identification of potential off-target interactions for the optimization of safety margins. This study was conducted by Eurofins Cerep (France) and Eurofins Discovery (St. Charles, MO). R-VK4-116 was tested in enzyme and uptake assay with 10 enzyme targets (Figs 4 and 5 in S1 File), and cellular and nuclear receptor functional assays with 24 receptor targets (Figs 5 and 6 in S1 File). Compound enzyme inhibition effect was calculated as a % inhibition of control enzyme activity. The cellular agonist effect was calculated as a % of the control response to a known reference agonist for each target, and the cellular antagonist effect was calculated as a % inhibition of the control reference agonist response for each target.

[2] = tested on: dog hepatocytes; assay: Metabolic stability in hepatocyte; settings: dog hepatocytes
Experimental: (§1) CYP3A4 substrate Midazolam (10 μM) was prepared and incubated in the same manner. […] In addition, in vitro half-life (t1/2, min) and intrinsic clearance (CLint, μl/min/10^6 cells) were calculated [10, 11].

[3] = Metabolic stability in hepatocyte; settings: Beagle, dog, hepatocytes in suspension
Experimental: as §1

[4] = Metabolic stability in liver microsomes; settings: dog, pH 7.4
[5] = tested on: rat hepatocytes; assay: Metabolic stability in hepatocyte; settings: rat hepatocytes
Experimental: as §1

[6] = Metabolic stability in hepatocyte; settings: Sprague Dawley, rat, hepatocytes in suspension
Experimental: as §1

[7] = tested on: human hepatocytes; assay: MTT assay, hepatocyte viability; type: cell-based
[8] = biological target: T1, MATE1 (Homo sapiens, UniProt Q96FL8); assay: Transporter mediated assay (substrate/inhibitor), MDCK-II cells; type: in vitro ADME
T1 construct: expressed in transfected cells; host or cells: MDCK-II cells
T1 sequence (Q96FL8 1-570): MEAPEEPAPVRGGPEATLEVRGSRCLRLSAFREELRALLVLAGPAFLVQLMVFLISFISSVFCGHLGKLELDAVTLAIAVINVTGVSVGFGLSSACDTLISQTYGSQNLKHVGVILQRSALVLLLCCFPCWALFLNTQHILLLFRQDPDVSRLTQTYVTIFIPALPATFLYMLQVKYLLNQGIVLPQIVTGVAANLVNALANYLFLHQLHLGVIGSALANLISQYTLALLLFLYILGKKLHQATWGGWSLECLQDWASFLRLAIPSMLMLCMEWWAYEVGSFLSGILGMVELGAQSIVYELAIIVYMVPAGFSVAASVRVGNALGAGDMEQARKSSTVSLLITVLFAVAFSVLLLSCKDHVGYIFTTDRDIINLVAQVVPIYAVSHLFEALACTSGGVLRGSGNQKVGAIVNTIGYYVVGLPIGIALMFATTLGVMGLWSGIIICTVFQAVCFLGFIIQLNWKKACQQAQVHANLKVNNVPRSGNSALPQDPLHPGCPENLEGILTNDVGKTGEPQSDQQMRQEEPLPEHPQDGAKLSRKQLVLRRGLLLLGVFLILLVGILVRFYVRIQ
Experimental: The MDCK-II cells were treated to express the transporter of interest. The transport of each probe substrate was determined by radiometric detection (Fig 1 in S1 File). […] For the uptake assay, the net transporter-mediated uptake-rate (V) of the substrate by each SLC transporter was calculated as follows: Transporter–mediatedupdaterate(pmol/min/cm^2)=(Cellularaccumulationincellsexpressingthetransporter)−(Meancellularaccumulationincontrolcells)/Surfacearea×incubationtime
Fold of activity and percent inhibition were determined as follows: Foldofactivity=(Meanuptakerate)transporterexpressingcells/(Meanuptakerate)controlcells Percentinhibition=100−100×(Transport‐mediatedupdaterate)withinhibitor/(Transport‐mediatedupdaterate)vehiclecontrol

[9] = Stability in the absence of hepatocytes; settings: no hepatocytes
Experimental: as §1

[10] = heat-inactivated liver microsomes

SMILES: CCc1cc(Cl)c(OC)c(N2CCN(CC(O)CCNC(=O)c3cc4ccccc4[nH]3)CC2)c1 (centres unmarked) [R-VK4-116, N-(4-(4-(3-chloro-5-ethyl-2-methoxyphenyl)piperazin-1-yl)-3-hydroxybutyl)-1H-indole-2-carboxamide]
- enzyme inhibition effects or uptake [1]: did not show any enzyme inhibition effects or uptake
- % remaining Vs T = 0 min ([2]; 0.5 μM, 0 min): 100.0%
- % remaining Vs T = 0 min ([2]; 0.5 μM, 30 min): 71.2%
- % remaining Vs T = 0 min ([2]; 0.5 μM, 60 min): 61.2%
- % remaining Vs T = 0 min ([2]; 0.5 μM, 90 min): 45.4%
- % remaining Vs T = 0 min ([2]; 0.5 μM, 120 min): 40.1%
- % remaining Vs T = 0 min ([2]; 10 μM, 0 min): 100.0%
- % remaining Vs T = 0 min ([2]; 10 μM, 30 min): 85.3%
- % remaining Vs T = 0 min ([2]; 10 μM, 60 min): 85.5%
- % remaining Vs T = 0 min ([2]; 10 μM, 90 min): 80.3%
- % remaining Vs T = 0 min ([2]; 10 μM, 120 min): 76.4%
- half-life at 0.5 μM [3]: 1.52 h
- half-life at 10 μM [3]: 5.78 h
- hepatocyte CLint at 0.5 μM [3]: 15.2 µL/min/1e6 cells
- hepatocyte CLint at 10 μM [3]: 4 µL/min/1e6 cells
- remaining at 0 h, 1 μM [4, 10]: 100%
- remaining at 0 h, 10 μM [4, 10]: 100%
- remaining at 2 h, 1 μM [4, 10]: 90.7%
- remaining at 2 h, 10 μM [4, 10]: 90.6%
- remaining at 0 h, 1 μM ([4]; liver microsomes): 100%
- remaining at 0 h, 10 μM ([4]; liver microsomes): 100%
- remaining at 0.5 h, 1 μM ([4]; liver microsomes): 44.6%
- remaining at 0.5 h, 10 μM ([4]; liver microsomes): 74.3%
- remaining at 1 h, 1 μM ([4]; liver microsomes): 22.5%
- remaining at 1 h, 10 μM ([4]; liver microsomes): 64.5%
- remaining at 1.5 h, 1 μM ([4]; liver microsomes): 22.3%
- remaining at 1.5 h, 10 μM ([4]; liver microsomes): 55.6%
- remaining at 2 h, 1 μM ([4]; liver microsomes): 19.7%
- remaining at 2 h, 10 μM ([4]; liver microsomes): 49.9%
- % remaining Vs T = 0 min ([5]; 0.5 μM, 0 min): 100.0%
- % remaining Vs T = 0 min ([5]; 0.5 μM, 30 min): 85.0%
- % remaining Vs T = 0 min ([5]; 0.5 μM, 60 min): 55.6%
- % remaining Vs T = 0 min ([5]; 0.5 μM, 90 min): 42.4%
- % remaining Vs T = 0 min ([5]; 0.5 μM, 120 min): 42.5%
- % remaining Vs T = 0 min ([5]; 10 μM, 0 min): 100.0%
- % remaining Vs T = 0 min ([5]; 10 μM, 30 min): 95.8%
- % remaining Vs T = 0 min ([5]; 10 μM, 60 min): 92.5%
- % remaining Vs T = 0 min ([5]; 10 μM, 90 min): 66.7%
- % remaining Vs T = 0 min ([5]; 10 μM, 120 min): 64.6%
- half-life at 0.5 μM [6]: 1.44 h
- half-life at 10 μM [6]: 2.82 h
- hepatocyte CLint at 0.5 μM [6]: 16 µL/min/1e6 cells
- hepatocyte CLint at 10 μM [6]: 8.2 µL/min/1e6 cells
- Hepatocyte Viability, MTT Assay Upfront (Mean) ([7]; 0.01 µM): 93
- Hepatocyte Viability, MTT Assay Upfront (Mean) ([7]; 0.1 µM): 105
- Hepatocyte Viability, MTT Assay Upfront (Mean) ([7]; 1 µM): 86
- Hepatocyte Viability, MTT Assay Upfront (Mean) ([7]; 3 µM): 91
- Hepatocyte Viability, MTT Assay Upfront (Mean) ([7]; 10 μM): 73
- Hepatocyte Viability, MTT Assay Upfront (Mean) ([7]; 30 µM): 73
- Hepatocyte Viability, Concurrent MTT Assay (Mean) ([7]; Lot 336, 0.01 µM): 96
- Hepatocyte Viability, Concurrent MTT Assay (Mean) ([7]; Lot 336, 0.10 µM): 90
- Hepatocyte Viability, Concurrent MTT Assay (Mean) ([7]; Lot 336, 1 µM): 91
- Hepatocyte Viability, Concurrent MTT Assay (Mean) ([7]; Lot 336, 3 µM): 80
- Hepatocyte Viability, Concurrent MTT Assay (Mean) ([7]; Lot 336, 5 µM): 75
- Hepatocyte Viability, Concurrent MTT Assay (Mean) ([7]; Lot 336, 10 µM): 73
- Hepatocyte Viability, Concurrent MTT Assay (Mean) ([7]; Lot 348B, 0.01 µM): 100
- Hepatocyte Viability, Concurrent MTT Assay (Mean) ([7]; Lot 348B, 0.10 µM): 101
- Hepatocyte Viability, Concurrent MTT Assay (Mean) ([7]; Lot 348B, 1 µM): 104
- Hepatocyte Viability, Concurrent MTT Assay (Mean) ([7]; Lot 348B, 3 µM): 96
- Hepatocyte Viability, Concurrent MTT Assay (Mean) ([7]; Lot 348B, 5 µM): 97
- Hepatocyte Viability, Concurrent MTT Assay (Mean) ([7]; Lot 348B, 10 µM): 102
- Hepatocyte Viability, Concurrent MTT Assay (Mean) ([7]; Lot 399, 0.01 µM): 107
- Hepatocyte Viability, Concurrent MTT Assay (Mean) ([7]; Lot 399, 0.10 µM): 104
- Hepatocyte Viability, Concurrent MTT Assay (Mean) ([7]; Lot 399, 1 µM): 95
- Hepatocyte Viability, Concurrent MTT Assay (Mean) ([7]; Lot 399, 3 µM): 88
- Hepatocyte Viability, Concurrent MTT Assay (Mean) ([7]; Lot 399, 5 µM): 86
- Hepatocyte Viability, Concurrent MTT Assay (Mean) ([7]; Lot 399, 10 µM): 91
- hepatocyte viability, concurrent MTT assay ([7]; ≤ 10 μM): no decrease of hepatocyte viability
- fold difference in mean uptake rate (substrate test) ([8]; MATE1, 1 μM, transporter cells vs control cells): < 2 fold
- inhibition at 10 µM ([8]; human, polarized monolayer of MDCK-II cells expressing MATE1, MATE1, 0.1% BSA, 10 μM): 19.4 ± 7.57%
- % remaining Vs T = 0 min ([9]; 0.5 μM, 0 min): 100.0%
- % remaining Vs T = 0 min ([9]; 0.5 μM, 30 min): 86.2%
- % remaining Vs T = 0 min ([9]; 0.5 μM, 60 min): 81.6%
- % remaining Vs T = 0 min ([9]; 0.5 μM, 90 min): 79.9%
- % remaining Vs T = 0 min ([9]; 0.5 μM, 120 min): 78.4%
- % remaining Vs T = 0 min ([9]; 10 μM, 0 min): 100.0%
- % remaining Vs T = 0 min ([9]; 10 μM, 30 min): 92.9%
- % remaining Vs T = 0 min ([9]; 10 μM, 60 min): 87.5%
- % remaining Vs T = 0 min ([9]; 10 μM, 90 min): 87.9%
- % remaining Vs T = 0 min ([9]; 10 μM, 120 min): 77.3%
